Article PMC11189555, “Aryl amino acetamides prevent Plasmodium falciparum ring development via targeting the lipid-transfer protein PfSTART1” (Nature Communications, 2024)
Several values for one entry are separate records, joined by “and”; a condition that tells them apart may be missing. Equal entries are not always repeated.

Columns and labels:
LSG1 (Q8ILF2) = assay: Solvent-PISA (solvent proteome profiling, DIA-MS); assay type: binding, Plasmodium falciparum; settings: WEHI991_vs_DMSO, gradient G1, LSG1
RECQ1 (Q8I2W7) = assay: Solvent-PISA (solvent proteome profiling, DIA-MS); assay type: binding, Plasmodium falciparum; settings: WEHI991_vs_DMSO, gradient G1, RECQ1
VPS51 (Q8I2A9) = assay: Solvent-PISA (solvent proteome profiling, DIA-MS); assay type: binding, Plasmodium falciparum; settings: WEHI991_vs_DMSO, gradient G1, VPS51
[1] = system: P. berghei sporozoites invading HC-04 human liver cells; assay: In vitro liver invasion assay; assay type: cell-based, Plasmodium berghei; settings: Replicate 1 and 2
Procedure: P. berghei ANKA constitutively expressing mCherry[82] was used for the in vitro liver stage invasion assay. Animals used for the generation of the sporozoites were 4- to 5-week-old male Swiss Webster mice and were purchased from the Monash Animal Services (Melbourne, Victoria, Australia) and housed at 22 to 25 °C on a 12 h light/dark cycle with 40-70% humidity at the School of Biosciences, The University of Melbourne, Australia. All animal experiments were in accordance with the Prevention of Cruelty to Animals Act 1986, the Prevention of Cruelty to Animals Regulations 2008, and National Health and Medical Research Council (2013) Australian code for the care and use of animals for scientific purposes. These experiments were reviewed and permitted by the Melbourne University Animal Ethics Committee (2015123).
Infections of naïve Swiss mice were carried out by intraperitoneal (IP) inoculation obtained from a donor mouse between the first and fourth passages from cryopreserved stock. Parasitemia was monitored by Giemsa smear and exflagellation quantified 3 days post-infection. A. stephensi mosquitoes were allowed to feed on anaesthetised mice once the exflagellation rate was assessed between about 12 to 15 exflagellation events per 1 × 10^4 RBCs. Salivary glands of infected mosquitoes (days 17 to 24 post-infection) were isolated by dissection and parasites placed into RPMI-1640 media.
This was performed essentially as described[83] with the minor variations outlined in the Supplementary Information. […]
In vitro liver invasion assays. This was performed essentially as described16 with the following variations. In vitro human liver HCO4 cells (ATCC) were seeded at 1 × 10^5 cells/mL, grown for 24 h and then infected for 2 h with 30,000 Pb ANKA mCherry […]
expressing sporozoites. Following fixation, an IFA with anti -CSP antibody (1:500) followed by anti-mouse Alexafluor 488 (1:1 ,000; Invitrogen, Carlsbad, CA, USA) labels uninvaded parasites. Fluorescence signal was assessed using an Olympus CKX41 epifluorescence microscope. […]
Gametogenesis was then triggered by the addition of 10 μL ookinete medium (gametocyte culture medium supplemented with 100 μM xanthurenic acid and 0.27 µg/mL Cy3-labelled anti-Pfs25 antibody) to each well at room temperature. Plates were then cooled on a metal block at 4°C for four min to ensure even cooling and then stabilised for a further 4 min at 28°C. At 20 min post-induction, male gametogenesis was recorded in each well by automated brightfield microscopy using a x4 objective lens and 1.5x magnifier (x6 effective magnification). Afterward, plates were incubated in the dark at room temperature for 24 h and then female gametogenesis recorded in each well by automated fluorescence microscopy (anti-Pfs25-positive cells). All experiments were performed in quadruplicate with DMSO and cabamiquine (DDD107498)17 as negative and positive controls respectively. All data was evaluated in comparison to the positive and negative controls to calculate percentage inhibition of male and female gametocytes, and dose response analysis and IC50 calculation performed using GraphPad Prism. […]
The pellet was subjected to five

Hyp1-Nluc parasites = assay: Egress, invasion & recovery assay (Nluc bioluminescence, smears); assay type: cell-based, Plasmodium falciparum; settings: schizonts treated 4 h: M-833 2 µM, W-991 60 nM, ML10 30 nM, E64 10 µM, heparin 100 µg/mL; then washed off
From the text: To measure egress, invasion, and follow-up recovery in the presence of different compounds, we adapted the method developed in[11], using Hyp1-Nluc parasites. A full description is in the Supplementary Information. […]
and compound 4. Note that M-833 was first purchased from MolPort (MolPort -002-267-916) then made in-house at WEHI: the differences observed in EC50s across experiments are attributed to the different batches of M -833. […]
Egress, invasion & recovery assay. To measure egress, invasion and follow up recovery in the presence of different compounds, we adapted the method developed in6, using Hyp1-Nluc parasites7. These parasites episomally express the exported PEXEL protein Hyp1 (PF3D7_0113300) tagged with a NanoLuc luciferase (NLuc) and were selected with 2.5 nM WR99210 (Jacobus). Highly synchronised schizonts were obtained using ML10 (LifeArc) and sorbitol synchronisation, and Percoll-purified (the culture was gently layered over 67% Percoll (Cytiva) in RPMI, and centrifuged for 15 min at 1500 g and the schizont layer was collected and washed). In a 96-well plate, […]
cultures were set up in 4 replicates (3 replicates for the Nluc readout, and one replicate for Giemsa smears) with 1-2% parasitemia, 2% haematocrit, with the following […]
100 μg/ml heparin (Sigma) and 10 μM E64 (Sigma). The schizonts were allowed to egress and invade for 4 h at 37°C. A “background” plate without treatment was left in the fridge during this time. After 4 h, cultures were sorbitol -treated to eliminate schizonts that have not egressed. Smears were made every day for the following 3 days, and 5 μL of the resuspended cultures were taken to measure Nluc activity (to assess parasite’s presence). To measure Nluc activity, 5 μL culture were added to 45 μL NanoGlo reagent (1x Promega lysis buffer and NanoGlo reagent; Promega). The average luminescence of the background cultures was subtracted to the average luminescence of each sample. […]
The viable parasite value was then expressed in log units and parasite reduction ratio was calculated as a decrease in […]

Molecule: CC(C)(Nc1ccc(Cl)c(S(=O)(=O)N2CCOCC2)c1)C(=O)Nc1ccc(F)c(Cl)c1 [WEHI991]
- Differential abundance (LSG1 (Q8ILF2)): 0.5417
- Differential abundance (RECQ1 (Q8I2W7)): 0.6685
- Differential abundance (VPS51 (Q8I2A9)): 0.7605

Molecule: C=C1[C@@H](C)[C@H]2[C@H](Cc3ccccc3)NC(=O)[C@]23[C@H](OC(C)=O)/C=C/[C@@](C)(O)C(=O)[C@@H](C)C/C=C/[C@H]3[C@@H]1O [cytD, cytochalasin D, reference compound]
- Liver stage invasion assay: in ([1]; count of sporozoites inside cells): 2
- Liver stage invasion assay: out ([1]; count of sporozoites outside cells): 118 and 305
- Liver stage invasion assay: ratio ([1]; in relative to in + out): 1.667 and 0.6515

Molecule: heparin [reference compound]
- parasite growth (Nluc bioluminescence) followed 72 h after 4 h treatment (Hyp1-Nluc parasites): virtually no recovery after three days
